Results on 19 compounds are retold here after patent US10336762B2 (priority 2017, dated 2019).

One assay relates to TNFα. Put plainly: cells. Conditions: Homo sapiens, Monocyte, LPS-stimulated human monocytes, TNFα content; read-out: EC50 TNF. The format is cell-based, human.
A further assay has as its target IRAK4 enzyme (Homo sapiens (Human), UniProt Q9NWZ3). Put plainly: biochemical. The format is biochemical. Conditions: IRAK4 enzyme, TR-FRET, 500 μM ATP. In general terms: In TR-FRET formats the signal depends on donor and acceptor labels being close together.

IRAK4 enzyme, sequence (Q9NWZ3 whole entry): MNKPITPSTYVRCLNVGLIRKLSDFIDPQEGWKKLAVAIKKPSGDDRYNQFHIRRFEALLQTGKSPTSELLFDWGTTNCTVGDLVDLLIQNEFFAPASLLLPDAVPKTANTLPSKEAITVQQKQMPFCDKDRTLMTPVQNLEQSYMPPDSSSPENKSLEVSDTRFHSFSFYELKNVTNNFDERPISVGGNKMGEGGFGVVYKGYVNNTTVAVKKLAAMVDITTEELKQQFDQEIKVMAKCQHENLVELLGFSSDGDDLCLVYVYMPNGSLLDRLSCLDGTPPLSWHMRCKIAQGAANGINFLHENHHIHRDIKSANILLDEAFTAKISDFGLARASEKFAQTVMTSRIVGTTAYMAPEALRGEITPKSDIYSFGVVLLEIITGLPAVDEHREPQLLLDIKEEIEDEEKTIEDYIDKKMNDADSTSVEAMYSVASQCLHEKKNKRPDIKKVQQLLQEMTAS

Turning to `CC(C)(O)[C@H](F)CNC(=O)c1cnc(-c2ccc3cc(C#N)cnn23)cc1N[C@H]1CCC(=O)NC1` [Example 368, 6-(3-cyanopyrrolo[1,2-b]pyridazin-7-yl)-N-((R)-2-fluoro-3-hydroxy-3-methylbutyl)-4-(((S)-6-oxopiperidin-3-yl)amino)nicotinamide], the concentration for a half-maximal effect (EC50) in the assay with TNFα is 2890 nM. The same compound displayed an IC50 against IRAK4 enzyme of 5 nM.
Consider `CC(C)NC(=O)c1cnc(-c2ccc3cc(C#N)cnn23)cc1NC(C)C` [Example 369, 6-(3-cyanopyrrolo[1,2-b]pyridazin-7-yl)-N-isopropyl-4-(isopropylamino)nicotinamide], for which the EC50 in the assay with TNFα was 922 nM. The same compound came in with a half-inhibitory concentration (IC50) against IRAK4 enzyme of 16 nM.
Consider `CC(C)(O)[C@H](F)CNC(=O)c1cnc(-c2ccc3cc(C#N)cnn23)cc1Nc1ccn(Cc2ccccc2)n1` [Example 370, (R)-4-((1-benzyl-1H-pyrazol-3-yl)amino)-6-(3-cyanopyrrolo[1,2-b]pyridazin-7-yl)-N-(2-fluoro-3-hydroxy-3-methylbutyl)nicotinamide], for which, in the assay with TNFα, the concentration for a half-maximal effect (EC50) was 10 nM. At IRAK4 enzyme, this compound came in with an IC50 of 1 nM.
Take `Cn1ccc(Nc2cc(-c3ccc4cc(C#N)cnn34)ncc2C(=O)NC[C@@H](F)C(C)(C)O)n1` [Example 371, (R)-6-(3-cyanopyrrolo[1,2-b]pyridazin-7-yl)-N-(2-fluoro-3-hydroxy-3-methylbutyl)-4-((1-methyl-1H-pyrazol-3-yl)amino)nicotinamide]: the EC50 with TNFα turned out to be 61 nM. On IRAK4 enzyme, this compound gave an IC50 below 1 nM.
On to `CC(C)(O)[C@H](F)CNC(=O)c1cnc(-c2ccc3cc(C#N)cnn23)cc1NC12CC(C(N)=O)(C1)C2` [Example 373, (R)-4-((3-carbamoylbicyclo[1.1.1]pentan-1-yl)amino)-6-(3-cyanopyrrolo[1,2-b]pyridazin-7-yl)-N-(2-fluoro-3-hydroxy-3-methylbutyl)nicotinamide], for which the EC50 with TNFα was determined as 141 nM. Moreover, the half-inhibitory concentration (IC50) against IRAK4 enzyme is below 1 nM.
As for `CC(C)(O)[C@H](F)CNC(=O)c1cnc(-c2ccc3cc(C#N)cnn23)cc1Nc1nc(C(F)(F)F)cs1` [Example 374, (R)-6-(3-cyanopyrrolo[1,2-b]pyridazin-7-yl)-N-(2-fluoro-3-hydroxy-3-methylbutyl)-4-((4-(trifluoromethyl)thiazol-2-yl)amino)nicotinamide], in the assay on TNFα, the 50% effective concentration (EC50) came out at 327 nM. Further, the midpoint of inhibition against IRAK4 enzyme, the IC50, lay at 1 nM.
For the compound `CC(C)(O)[C@H](F)CNC(=O)c1cnc(-c2ccc3cc(C#N)cnn23)cc1Nc1nccs1` [Example 375, (R)-6-(3-cyanopyrrolo[1,2-b]pyridazin-7-yl)-N-(2-fluoro-3-hydroxy-3-methylbutyl)-4-(thiazol-2-ylamino)nicotinamide], the EC50 with TNFα was 110 nM. The same compound came in with a concentration for half-maximal inhibition (IC50) at IRAK4 enzyme of 1 nM.
For `COc1ccc2nc(Nc3cc(-c4ccc5cc(C#N)cnn45)ncc3C(=O)NC[C@@H](F)C(C)(C)O)sc2c1` [Example 376, (R)-6-(3-cyanopyrrolo[1,2-b]pyridazin-7-yl)-N-(2-fluoro-3-hydroxy-3-methylbutyl)-4-((6-methoxybenzo[d]thiazol-2-yl)amino)nicotinamide] the same measures were 736 nM and 2 nM.
For `CC(C)(O)[C@H](F)CNC(=O)c1cnc(-c2ccc3cc(C#N)cnn23)cc1NC12CC(C#N)(C1)C2` [Example 378, (R)-4-((3-cyano-bicyclo[1.1.1]pentan-1-yl)amino)-6-(3-cyano-pyrrolo[1,2-b]pyridazin-7-yl)-N-(2-fluoro-3-hydroxy-3-methylbutyl) nicotinamide] the same measures were 38 nM and below 1 nM.
Take `CC(C)Nc1cc(-c2ccc3cc(C#N)cnn23)ncc1C(=O)NC12CC(C#N)(C1)C2` [Example 380, N-(3-cyanobicyclo[1.1.1]pentan-1-yl)-6-(3-cyano-pyrrolo[1,2-b]pyridazin-7-yl)-4-(isopropylamino) nicotinamide]: in the assay with TNFα, the concentration for a half-maximal effect (EC50) was found to be 773 nM. The IC50 at IRAK4 enzyme was 15 nM.
For `CC(C)(O)[C@H](F)CNC(=O)c1cnc(-c2ccc3cc(C#N)cnn23)cc1Nc1ccc(C(N)=O)cc1` [Example 381] the same measures were 18 nM and below 1 nM.
`CC(C)(O)[C@H](F)CNC(=O)c1cnc(-c2ccc3cc(C#N)cnn23)cc1Nc1ccccc1C(N)=O` [Example 382, (R)-4-((2-carbamoyl-phenyl)amino)-6-(3-cyanopyrrolo[1,2-b]pyridazin-7-yl)-N-(2-fluoro-3-hydroxy-3-methylbutyl)nicotinamide]: the EC50 with TNFα turned out to be 586 nM. This compound also displayed an IC50 on IRAK4 enzyme of 10 nM.
`CC(C)(O)[C@H](F)CNC(=O)c1cnc(-c2ccc3cc(C#N)cnn23)cc1Nc1cccc(C(N)=O)c1` [Example 383, (R)-4-((3-carbamoyl-phenyl)amino)-6-(3-cyanopyrrolo[1,2-b]pyridazin-7-yl)-N-(2-fluoro-3-hydroxy-3-methylbutyl)nicotinamide]: the EC50 in the assay with TNFα turned out to be 144 nM. This compound had a concentration for half-maximal inhibition (IC50) at IRAK4 enzyme below 1 nM.
As to `CC(C)(O)[C@H](F)CNC(=O)c1cnc(-c2ccc3cc(C#N)cnn23)cc1Nc1cccc(F)c1` [Example 384, (R)-6-(3-cyanopyrrolo[1,2-b]pyridazin-7-yl)-N-(2-fluoro-3-hydroxy-3-methylbutyl)-4-((3-fluorophenyl)amino) nicotinamide], the concentration for a half-maximal effect (EC50) in the assay on TNFα was found to be 129 nM. This compound showed an IC50 on IRAK4 enzyme of 1 nM.
On to `CC(C)(O)[C@H](F)CNC(=O)c1cnc(-c2ccc3cc(C#N)cnn23)cc1Nc1ccc(-n2ccccc2=O)cc1` [Example 385, (R)-6-(3-cyanopyrrolo[1,2-b]pyridazin-7-yl)-N-(2-fluoro-3-hydroxy-3-methylbutyl)-4-((4-(2-oxopyridin-1(2H)-yl)phenyl)amino)nicotinamide], for which the EC50 with TNFα worked out at 36 nM. At IRAK4 enzyme, the IC50 is below 1 nM.
For `N#Cc1ccc(NC(=O)c2cnc(-c3ccc4cc(C#N)cnn34)cc2N[C@H]2CCC[C@@H](O)C2)nc1` [Example 386, 6-(3-cyanopyrrolo[1,2-b]pyridazin-7-yl)-N-(5-cyanopyridin-2-yl)-4-(((1S,3R)-3-hydroxycyclohexyl)amino)nicotinamide] the same measures were 2380 nM and 8 nM.
As for `COC(=O)NC1CCC(NC(=O)c2cnc(-c3ccc4cc(C#N)cnn34)cc2N[C@H]2CCCC(O)C2)CC1` (stereo partly drawn) [Example 387, methyl ((1S,4r)-4-(6-(3-cyanopyrrolo[1,2-b]pyridazin-7-yl)-4-(((1S,3R)-3-hydroxy-cyclohexyl)amino)nicotinamido)cyclohexyl)carbamate], in the assay with TNFα, the EC50 came to 112 nM. For the same compound, at IRAK4 enzyme, half-maximal inhibition (IC50) was put at 2 nM.
On to `C[C@]1(O)C[C@@H](Nc2cc(-c3ccc4cc(C#N)cnn34)ncc2C(=O)NCC#N)C1` [Example 388, N-(cyanomethyl)-6-(3-cyanopyrrolo[1,2-b]pyridazin-7-yl)-4-(((1s,3s)-3-hydroxy-3-methylcyclobutyl)amino) nicotinamide], for which the concentration giving a half-maximal response (EC50) with TNFα was found to be 96 nM. The 50% inhibitory concentration (IC50) on IRAK4 enzyme turned out to be 1 nM.
For `C[C@]1(O)C[C@H](Nc2cc(-c3ccc4cc(C#N)cnn34)ncc2C(=O)NCC#N)C1` [Example 389, N-(cyanomethyl)-6-(3-cyanopyrrolo[1,2-b]pyridazin-7-yl)-4-(((1r,3r)-3-hydroxy-3-methylcyclobutyl)amino) nicotinamide] the same measures were 137 nM and 3 nM.

Broadly, the EC50 is the concentration giving half of the maximal effect. One may read the IC50 as the concentration needed to halve the response being measured. Read a high IC50 as weaker potency.
